Tests used:
vasopressin V1 = assay: Vasopressin V1 Antagonist Activity in Conscious Rats (vasopressin vasopressor response); format: in vivo, rat (spontaneously hypertensive rats)
Summary of the method: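 Conscious rats had the ventral caudal tail artery cannulated into the lower abdominal aorta under local procaine anesthesia, plus a caudal vein cannula for intravenous dosing. Pulsatile blood pressure was recorded via a Statham P23Db transducer. Vasopressor responses to vasopressin injections were measured before and after compound dosing, with percent antagonism calculated relative to the pre-drug response taken as 100%.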

vasopressin V2 = assay: Vasopressin V2 Antagonist Activity in Conscious Hydrated Rats (diuretic effect); format: in vivo, normal Sprague-Dawley rats; conditions: AVP 0.4 μg/kg i.p.
Summary of the method: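 Conscious rats were dosed orally at 0.1–100 mg/kg, and AVP 0.4 μg/kg i.p. in peanut oil followed 1 h later. Urine volume, osmolality and Na/K/Cl were compared against AVP-treated controls, with non-AVP rats as water-loading controls.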

[1] = target: T1, rat kidney medullary V2 receptors (Rattus norvegicus, UniProt Q00788); assay: Binding Assay to Rat Kidney Medullary V2 Receptors; conditions: rat kidney medullary V2
T1 construct: Medullary tissues from rat kidneys are dissected out; from tissue; host or cells: rat kidney medulla membranes
Summary of the method: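 Competition binding: [3H]AVP at 0.8 nM, test compounds from 50% DMSO, and membranes from rat kidney medulla, left 120 min on the bench. Filtration then liquid scintillation counting measured bound ligand; 1.0 μM unlabeled ligand set non-specific binding.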

T1 sequence (Q00788 whole entry): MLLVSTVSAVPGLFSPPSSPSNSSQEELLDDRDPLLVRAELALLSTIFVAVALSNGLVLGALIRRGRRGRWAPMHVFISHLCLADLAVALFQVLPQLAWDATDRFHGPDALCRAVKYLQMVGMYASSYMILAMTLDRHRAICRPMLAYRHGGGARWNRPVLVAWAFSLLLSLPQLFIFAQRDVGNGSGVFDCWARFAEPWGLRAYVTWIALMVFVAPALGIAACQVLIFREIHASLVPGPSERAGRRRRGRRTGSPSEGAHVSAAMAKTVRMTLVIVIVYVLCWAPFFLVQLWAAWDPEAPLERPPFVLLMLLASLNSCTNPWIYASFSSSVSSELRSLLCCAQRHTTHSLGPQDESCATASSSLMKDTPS

SMILES | IC50 [1] | MAX % Inhibition (vasopressin V1; 30 mg/kg i.v.) | Time of max % inhibition (vasopressin V1; 30 mg/kg i.v.) | Osmolality (vasopressin V2; 10 mg/kg orally) | Urine Volume (vasopressin V2; 10 mg/kg orally) | MAX % Inhibition (vasopressin V1; 10 mg/kg i.v.) | Time of max % inhibition (vasopressin V1; 10 mg/kg i.v.) | Osmolality (vasopressin V2; 20 mg/kg orally) | Urine Volume (vasopressin V2; 20 mg/kg orally) | Osmolality (vasopressin V2; 30 mg/kg orally) | Urine Volume (vasopressin V2; 30 mg/kg orally)
Cc1ccccc1C(=O)N(CN(C)C)c1ccc(C(=O)N2Cc3ccccc3Cc3ccccc32)cc1 [Example 267, N-[4-[(6,11-Dihydro-5H-dibenz[b,e]azepin-5-yl)-carbonyl]phenyl]-N-[(dimethylamino)methyl]-2-methylbenzamide] | 82 nM |  |  | 517 mOsm/kg | 7.5 ml/4 hrs. | 74% | 120 min |  |  |  | 
Cc1ncc2c(n1)-c1ccccc1N(C(=O)c1ccc(NC(=O)c3ccccc3C)cc1)CC2 [Example 416, N-[4-[(6,7-Dihydro-2-methyl-5H-pyrimido[5,4-d][1]-benzazepin-7-yl)carbonyl]phenyl]-2-methylbenzamide] | 1100 nM | 44% | 90 min | 1156 mOsm/kg | 4.3 ml/4 hrs. |  |  |  |  |  | 
O=C(Nc1ccc(C(=O)N2Cc3ccccc3Sc3ccccc32)cc1)c1ccccc1Cl [Example 448, N-[4-[(Dibenz[b,f][1,4]thiazepin-10(11H)yl)-carbonyl]phenyl]-2-chlorobenzamide] | 190 nM | 60% | 90 min |  |  |  |  |  |  | 1084 mOsm/kg | 4.8 ml/4 hrs.

Now those with a lower IC50 [1], led by results:

IC50 [1] | SMILES | MAX % Inhibition (vasopressin V1; 30 mg/kg i.v.) | Time of max % inhibition (vasopressin V1; 30 mg/kg i.v.) | Osmolality (vasopressin V2; 10 mg/kg orally) | Urine Volume (vasopressin V2; 10 mg/kg orally) | MAX % Inhibition (vasopressin V1; 10 mg/kg i.v.) | Time of max % inhibition (vasopressin V1; 10 mg/kg i.v.) | Osmolality (vasopressin V2; 20 mg/kg orally) | Urine Volume (vasopressin V2; 20 mg/kg orally) | Osmolality (vasopressin V2; 30 mg/kg orally) | Urine Volume (vasopressin V2; 30 mg/kg orally)
65 nM | Cc1ccccc1C(=O)Nc1ccc(C(=O)N2Cc3ccccc3Cc3ccccc32)c(Cl)c1 [Example 260, N-[4-[(6,11-Dihydro-5H-dibenz[b,e]azepin-5-yl)-carbonyl]-3-chlorophenyl]-2-methylbenzamide] | 79% | 120 min | 498 ± 25 mOsm/kg | 13.8 ± 2.1 ml/4 hrs. |  |  |  |  |  | 
53 nM | Cc1ccccc1C(=O)Nc1ccc(C(=O)N2CCc3cn(C)nc3-c3ccccc32)cc1 [Example 379, N-[4-[(4,5-Dihydro-2-methylpyrazolo[4,3-d][1]-benzazepin-6(2H)-yl)carbonyl]phenyl]-2-methylbenzamide] |  |  |  |  | 75% | 300 min | 483 mOsm/kg | 7 ml/4 hrs. |  | 

— patent US5834461A, “Tricyclic benzazepine vasopressin antagonists” (American Cyanamid Company, priority 1997, dated 1998)
